# Source: PubChem BioAssay (NCI)
# Where “and” joins values, the source holds several entries; their conditions need not be identical. Identical values can stand only once.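 Tested at 5 concentrations; 48 h exposure; 96-well plates; endpoints linearly interpolated, else capped at highest concentration. Abbreviation: GI50, concentration required for 50% inhibition of growth. TGI: concentration producing complete growth inhibition.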
# Experiments:
# Experiment in all cases: inhibition of tumour cell growth, NCI panel, 48 h
# DU-145 prostate = system: DU-145 prostate
# EKVX NSCLC = system: EKVX NSCLC
# MDA-MB-231 breast = system: MDA-MB-231 breast
# HCT-116 colon = system: HCT-116 colon
# SK-OV-3 ovarian = system: SK-OV-3 ovarian
# SF-268 CNS = system: SF-268 CNS
# 786-0 renal = system: 786-0 renal
# COLO 205 colon = system: COLO 205 colon
# SF-295 CNS = system: SF-295 CNS
# NCI/ADR-RES ovarian = system: NCI/ADR-RES ovarian
SMILES,GI50 (DU-145 prostate),TGI (DU-145 prostate),GI50 (EKVX NSCLC),TGI (EKVX NSCLC),GI50 (MDA-MB-231 breast),TGI (MDA-MB-231 breast),GI50 (HCT-116 colon),TGI (HCT-116 colon),GI50 (SK-OV-3 ovarian),TGI (SK-OV-3 ovarian),GI50 (SF-268 CNS),TGI (SF-268 CNS),GI50 (786-0 renal),TGI (786-0 renal),GI50 (COLO 205 colon),TGI (COLO 205 colon),GI50 (SF-295 CNS),TGI (SF-295 CNS),GI50 (NCI/ADR-RES ovarian),TGI (NCI/ADR-RES ovarian)
C#Cc1c(F)ccc2cc(O)cc(-c3ncc4c(N5CC6CCC(C5)N6)nc(OC[C@@]56CCCN5C[C@H](F)C6)nc4c3F)c12,14.9 µM,28.6 µM,21.7 µM,> 54.6 µM,2.36 µM,13.7 µM,2.62 µM,14 µM,17.7 µM,35.6 µM,12 µM,25.4 µM,15 µM,31 µM,16.1 µM,45.1 µM,15.9 µM,32 µM,> 100 µM,> 100 µM
C[C@H]1[C@H](C)CC[C@]2(CO)CC[C@]3(C)C(=CC[C@@H]4[C@@]5(C)CCCNC(C)(C)[C@@H]5CC[C@]43C)[C@H]12,1.72 µM,3.14 µM,1.66 µM,3.29 µM,1.88 µM,3.48 µM,1.49 µM,2.81 µM,2.54 µM,6.97 µM,1.79 µM,3.5 µM,1.6 µM,3.06 µM,1.74 µM,3.46 µM,1.64 µM,3.06 µM,1.76 µM,3.47 µM
COc1cc(C[C@H]2c3cc(OC)c(OC)cc3CCN2C)c(Oc2cc3c(cc2OC)-c2c(OC)c(OC)cc4c2[C@H](C3)N(C)CC4)cc1OC,–,39.6 µM,17.6 µM,34.6 µM and 32.7 µM,–,14.9 µM,10.4 µM,14 µM and 22.4 µM,15.1 µM and 21.1 µM,40 µM and 36.2 µM,14.3 µM,31 µM and 28.4 µM,8.97 µM,14.1 µM and 21.9 µM,2.17 µM,12.6 µM and 8.09 µM,16.5 µM,21 µM and 30.7 µM,–,32.3 µM
Cc1ccc(S(=O)(=O)N/N=C/c2c(O)ccc3ccccc23)cc1,–,> 100 µM,–,> 100 µM,–,70.7 µM,–,45.6 µM,–,84.6 µM,–,> 100 µM,–,> 100 µM,–,37.4 µM,–,57.5 µM,–,> 100 µM
COc1cc(C(=O)O[C@H](C(=O)NCCCCCNC(=O)[C@@H](OC(=O)c2cc(OC)cc3c(C)cccc23)[C@]2(C)CO2)[C@]2(C)CO2)c2cccc(C)c2c1,0.122 µM,–,0.635 µM,3.72 µM,0.893 µM,4.03 µM,0.884 µM,3.68 µM,3.28 µM,> 30.1 µM,< 0.0304 µM,0.92 µM,< 0.01 µM,0.0115 µM,0.286 µM,–,2.5 µM,6.75 µM,0.165 µM,0.584 µM
CCN(CC)CCCC(C)Nc1ccnc2cc(Oc3ccccc3)ccc12 (stereo not given),5.73 µM and 54.6 µM,22.4 µM and > 100 µM,14.1 µM and 18.6 µM,31.8 µM and 98.7 µM,2.05 µM and 3.47 µM,8.41 µM and 21.9 µM,2.59 µM and 3.03 µM,13.1 µM and 21.9 µM,15.7 µM and 22.9 µM,32.2 µM and 78.9 µM,6.48 µM and 8.36 µM,19.9 µM and 92.4 µM,4.53 µM and 5.09 µM,11.6 µM and 17.4 µM,1.88 µM and 1.65 µM,4.4 µM and 3.94 µM,2.69 µM and 4.09 µM,17.4 µM and 19 µM,14.3 µM and 38.4 µM,34.1 µM and > 100 µM
N#CC(NC12CC3CC(CC(C3)C1)C2)c1ccc2c(c1)OCO2 (stereo not given),–,> 100 µM,–,> 100 µM,–,> 100 µM,–,> 100 µM,–,> 100 µM,–,> 100 µM,–,> 100 µM,–,> 100 µM,–,> 100 µM,–,> 100 µM
COc1ccc(/C(COc2ccc3c(=O)cc(-c4ccccc4)oc3c2)=N\O)cc1,11.5 µM,> 47.4 µM,2.05 µM,> 18 µM,5.82 µM,22.5 µM,21.2 µM,> 50 µM,16.1 µM,48.4 µM,11.3 µM,> 36.8 µM,17.2 µM,> 50 µM,26.5 µM,> 50 µM,12.5 µM,42.8 µM,15.4 µM,> 50 µM
COc1ccc(-c2cn(-c3cc(OC)c(OC)c(OC)c3)c(SCc3ccccc3)n2)cc1OC,> 100 µM,> 100 µM,> 100 µM,> 100 µM,> 100 µM,> 100 µM,> 100 µM,> 100 µM,> 100 µM,> 100 µM,> 100 µM,> 100 µM,> 100 µM,> 100 µM,> 100 µM,> 100 µM,> 100 µM,> 100 µM,> 100 µM,> 100 µM
COc1cc([N+](=O)[O-])c(OC)cc1-c1nc2sc(Cl)cn2c1/C(N)=N/C(=N)N,7.2 µM,27.9 µM,9.66 µM,40.9 µM,2.19 µM,8.25 µM,2.41 µM,6.41 µM,23.7 µM,> 62.1 µM,4.17 µM,11.8 µM,2.33 µM,5.64 µM,2.71 µM,6.67 µM,9.94 µM,36.7 µM,61.4 µM,> 100 µM
COc1cc(NC(C)CCCNC2CN3CCC2CC3)c2ncccc2c1 (stereo not given),16.4 µM,30.2 µM,12.1 µM,26.7 µM,3.58 µM,15.7 µM,3.75 µM,13.9 µM,15.2 µM,28.5 µM,12.2 µM,25.8 µM,13.4 µM,27.1 µM,2.58 µM,7.16 µM,11.6 µM,27.7 µM,24.6 µM,> 100 µM
C(#Cc1ccccc1C#Cc1cccs1)c1cccs1,> 100 µM,> 100 µM,73.1 µM,> 100 µM,23.4 µM,82.1 µM,21.8 µM,> 100 µM,33.9 µM,> 100 µM,> 100 µM,> 100 µM,24.7 µM,> 100 µM,36.4 µM,> 100 µM,30.6 µM,> 100 µM,25.2 µM,> 100 µM
COc1cc2ccc(/C=C\[N+](=O)[O-])cc2cc1OC,–,4.39 µM,–,15.5 µM,–,9.02 µM,–,5.16 µM,–,28.4 µM,–,11 µM,–,3.09 µM,–,15.9 µM,–,33.8 µM,–,17.2 µM
Cc1nn2c(/C=C3\C(=O)Nc4ccc(Cl)cc43)c(C)nc2s1,86.5 µM,> 100 µM,92 µM,> 100 µM,> 100 µM,> 100 µM,30.2 µM,> 100 µM,49.8 µM,> 100 µM,43.2 µM,> 100 µM,33.7 µM,> 100 µM,13.3 µM,> 100 µM,16.7 µM,> 100 µM,15.8 µM,> 100 µM
COc1ccc(C(=O)OC2C(OC3C(O)COC(O[C@H]4C[C@H]5[C@@H]6CC=C7C[C@@H](O)CC[C@]7(C)[C@H]6CC[C@]5(C)[C@H]4[C@H](C)C(=O)CCC(C)C)C3OC(N)=O)OCC(O)C2O)cc1 (stereo not given in full),0.0285 µM,5.34 µM,0.102 µM,4.1 µM,0.355 µM,4.58 µM,0.0198 µM,3.56 µM,0.0423 µM,1.34 µM,0.0427 µM,1.49 µM,0.00486 µM,3.13 µM,0.072 µM,0.507 µM,< 0.003 µM,0.00922 µM,13.9 µM,30 µM
CC/C=C1/C(=O)C=C[C@@H]1C/C=C\CCCC(=O)OC,4.56 µM,16.4 µM,4.8 µM,16.8 µM,4.43 µM,15.4 µM,0.447 µM,2.4 µM,7.15 µM,19.5 µM,3.03 µM,13.1 µM,2.56 µM,6.59 µM,2.4 µM,5.18 µM,2.6 µM,6.76 µM,2.88 µM,14.5 µM
C=C1C(=O)O[C@H]2[C@H]1CC/C(COC(=O)NCc1ccc(Cn3c(=O)sn(CCCl)c3=O)cc1)=C\CC[C@@]1(C)O[C@@H]21,1.72 µM,3.14 µM,1.99 µM,5.25 µM,1.89 µM,3.68 µM,1.62 µM,3.08 µM,16.1 µM,29.7 µM,3.73 µM,14.6 µM,1.79 µM,3.27 µM,1.84 µM,3.6 µM,16.4 µM,30.3 µM,26.3 µM,77.8 µM
CC(C)[C@H](N)C(=O)N1CCC[C@H]1B(O)O,> 100 µM,> 100 µM,> 100 µM,> 100 µM,> 100 µM,> 100 µM,> 100 µM,> 100 µM,> 100 µM,> 100 µM,> 100 µM,> 100 µM,> 100 µM,> 100 µM,> 100 µM,> 100 µM,> 100 µM,> 100 µM,> 100 µM,> 100 µM
Cc1ccc(Nc2n[nH]c(=S)s2)cc1C,–,> 100 µM,–,> 100 µM,–,> 100 µM,–,> 100 µM,–,> 100 µM,–,> 100 µM,–,> 100 µM,–,> 100 µM,–,> 100 µM,–,> 100 µM
COc1ccc2c(c1)c(=O)oc1cc(OC/C(C)=N\O)ccc12,> 100 µM,> 100 µM,3.38 µM,> 100 µM,42.9 µM,> 100 µM,> 100 µM,> 100 µM,99.7 µM,> 100 µM,37.7 µM,> 100 µM,> 100 µM,> 100 µM,> 100 µM,> 100 µM,37.9 µM,> 100 µM,> 100 µM,> 100 µM
C=C1CCC2C3(C)COC(c4ccc(N(C)C)cc4)OC3CCC2(C)C1C/C=C1/C(=O)OCC1O (stereo not given),3.01 µM,10.4 µM,6.43 µM,21.9 µM,7.19 µM,20.8 µM,1.62 µM,3.05 µM,17 µM,50.4 µM,3.78 µM,14.4 µM,10.5 µM,25.3 µM,3.54 µM,12.7 µM,6 µM,20 µM,3.83 µM,43.5 µM
O=[N+]([O-])O.[Cu+2].[NH-]CC[NH-].[NH-]CC[NH-],> 10 µM,> 10 µM,> 10 µM,> 10 µM,> 10 µM,> 10 µM,> 10 µM,> 10 µM,> 10 µM,> 10 µM,> 10 µM,> 10 µM,> 10 µM,> 10 µM,> 10 µM,> 10 µM,> 10 µM,> 10 µM,> 10 µM,> 10 µM
COc1ccc2cc(C(=O)/C=C/c3ccc(Cl)cc3Cl)ccc2c1,23 µM,62.1 µM,9.79 µM,26.4 µM,44.6 µM,> 100 µM,3.04 µM,10.3 µM,61.6 µM,> 100 µM,> 100 µM,> 100 µM,8.13 µM,24.3 µM,20.3 µM,55.7 µM,35.9 µM,> 100 µM,23 µM,> 100 µM
c1ccc2[nH]c(-c3ccc(-c4nccc5c4[nH]c4ccccc45)cc3)nc2c1,4.02 µM,16.2 µM,3.45 µM,16.8 µM,2.39 µM,5.83 µM,2.83 µM,10.4 µM,4.37 µM,15.9 µM,2.89 µM,10.2 µM,2.24 µM,6.3 µM,2.32 µM,6.22 µM,1.92 µM,4 µM,3.5 µM,15.2 µM
C=C(C)C(=O)O[C@H]1CC(=C)[C@@H]2C[C@H](O)[C@](O)(CCl)[C@@H]2[C@H]2OC(=O)C(=C)[C@@H]21,2.16 µM,6.33 µM,12.3 µM,25.7 µM,4.28 µM,13.6 µM,1.67 µM,3.19 µM,16.2 µM,30.2 µM,3.76 µM,17.4 µM,1.93 µM,3.88 µM,1.87 µM,3.66 µM,12.3 µM,26.4 µM,3.33 µM,13.2 µM
